# Measurements taken from patent US11198692B2, “Dihydro-pyrrolo-pyridine derivatives” (Pfizer Inc., priority 2017, dated 2021).
# Biological target: T1, Human M4 receptors (Homo sapiens, UniProt P08173)
# T1 construct: expressed in transfected cells
# T1 sequence (P08173 1-479): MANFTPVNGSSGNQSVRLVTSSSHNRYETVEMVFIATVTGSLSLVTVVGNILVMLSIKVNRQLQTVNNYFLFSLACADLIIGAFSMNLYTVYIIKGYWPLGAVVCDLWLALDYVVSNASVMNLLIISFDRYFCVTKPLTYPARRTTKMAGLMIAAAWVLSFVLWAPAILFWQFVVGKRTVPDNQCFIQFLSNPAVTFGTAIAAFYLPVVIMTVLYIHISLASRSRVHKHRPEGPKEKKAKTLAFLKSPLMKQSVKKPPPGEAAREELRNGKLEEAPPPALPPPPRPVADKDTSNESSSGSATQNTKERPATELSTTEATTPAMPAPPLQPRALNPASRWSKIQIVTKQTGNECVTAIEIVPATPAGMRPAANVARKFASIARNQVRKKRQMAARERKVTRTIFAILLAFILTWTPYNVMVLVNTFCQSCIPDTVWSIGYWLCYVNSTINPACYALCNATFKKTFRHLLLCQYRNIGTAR
# Test: M4 PAM cAMP assay (GloSensor)
# Assay type: cell-based
# Details: HEK293 GloSensor cells expressing hM4, with EC20 acetylcholine and isoproterenol, geometric mean of 2-4 determinations unless footnoted (b: >=5, c: single); for Emax / EC50 Mean Asymptote Maximum (%): Emax = maximum asymptote of fitted dose response curve; for Emax: read-out: EC50 Mean Asymptote Maximum (%)
# Procedure: The M4 cAMP assay was designed to determine the potency and efficacy of muscarinic positive allosteric modulators (PAMs). Human M4 receptors were stably expressed in Human embryonic kidney (HEK293) cells expressed with the Promega GloSensor™ cAMP technology.
# HEK293 GloSensor cells expressing hM4 cells were cultured in growth media containing DMEM with 10% FBS, 1% Penicillin/Streptomycin, 500 μg/mL G418, 200 μg/mL Hygomycin B, and 1% Glutamax. When cells had grown to 80%-90% confluency, cells were harvested and seeded at a density of 25,000 cells/40 μL well, in a 384 white walled plates (Becton Dickinson 356661). Plates were incubated at 37 degrees C. and 5% CO2 for use after 24 hours.
# Compound Preparation for Activator Screen:
# Test compounds were initially prepared as 100% DMSO stock solutions, then transferred and serially diluted in 384-well compound plates (Matrix #4325). Each compound was tested at 10 concentrations in duplicate per experiment. Compound plates are spotted with 0.2 μL/well activator at 400 times the final assay concentration. Positive and negative controls for the compound alone activator response was 10 μM acetylcholine (Sigma # A2661) and DMSO, respectively. EC20 of acetylcholine was also used to define PAM activities.
# Promega GloSensor™reagent (Promega # E1291) had previously been aliquotted. For each experiment, a stock solution of GloSensor™ was thawed out and equilibration medium was prepared with 88% CO2-independent media (Invitrogen #18045088), 10% fetal bovine serum and 2% GloSensor™ cAMP Reagent stock solution. Stock solution was mixed. Culture media in cell plates was discarded, then replaced with 40 μL/well pre-warmed equilibration media, then incubated in the dark at room temperature for 2 hours. During the incubation, stimulation media containing agonist and EC20 acetylcholine was prepared. CO2-independent media containing 50 […] Isoproterenol representing an EC80 of b-adrenergic receptor activity (Sigma #16504, 400 times final concentration) and EC20 acetylcholine in 1.25% DMSO was added to all columns of the compound plate, with the exception of column 12 to allow for EC0 control. […] Compounds are now 5 times the final assay concentration. The plate was mixed using a plate agitator. At the end of the 2 hour GloSensor™ incubation, add 10 μL of the CO2-independent media containing agonist, EC20 acetylcholine and isoproterenol to the cell plate. Cell plate was then incubated for 10 minutes at room temperature, and then read using an EnVision plate reader (Perkin Elmer).
# Data was exported from the EnVision plate reader. The percent effect for each well was determined using the mean values for the positive and negative controls on each plate for each read, specifically 100*(compound−negative control)/(positive control−negative control). Dose response curves were fitted to the compound percent effect data using a 4-parameter logistic fit model. Data was reported as EC50 and Emax, with the Emax as the maximum asymptote of the fitted dose response curve.
Emax,EC50,EC50 Mean Asymptote Maximum (%),SMILES
98.2%,7.27 nM,,"CNc1nc(C)c(C)c2c1CN(C(=O)CC1Cc3ccccc3C1)C2 [Example 24, 2-(2,3-dihydro-1H-inden-2-yl)-1-[6,7-dimethyl-4-(methylamino)-1,3-dihydro-2H-pyrrolo[3,4-c]pyridin-2-yl]ethanone]"
98.9%,8.35 nM,,"Cc1c2c(c(=O)n(C)c1C)CN(C(=O)CC1CN(c3ccnc(C(F)(F)F)c3)C1)C2 [Example 25, 5,6,7-trimethyl-2-({1-[2-(trifluoromethyl)pyridin-4-yl]azetidin-3-yl}acetyl)-1,2,3,5-tetrahydro-4H-pyrrolo[3,4-c]pyridin-4-one]"
,9.99 nM,95.3%,"Cc1c2c(c(=O)n(C)c1C)CN(C(=O)C[C@@H]1C[C@H]1c1cccnc1)C2 (single isomer, unassigned) [Example 27, 5,6,7-trimethyl-2-{[trans-2-(pyridin-3-yl)cyclopropyl]acetyl}-1,2,3,5-tetrahydro-4H-pyrrolo[3,4-c]pyridin-4-one]"
102%,17.9 nM,,"Cc1nc(N(C)C)c2c(c1C)CN(C(=O)CC1CN(c3cccnc3)C1)C2 [Example 17, 1-[4-(dimethylamino)-6,7-dimethyl-1,3-dihydro-2H-pyrrolo[3,4-c]pyridin-2-yl]-2-[1-(pyridin-3-yl)azetidin-3-yl]ethanone]"
99%,1.24 nM,,"Cc1nc(N)c2c(c1C)CN(C(=O)C[C@@H]1C[C@H]1c1ccc(F)nc1)C2 (single isomer, unassigned) [Example 8, 1-(4-Amino-6,7-dimethyl-1,3-dihydro-2H-pyrrolo[3,4-c]pyridin-2-yl)-2-[trans-2-(6-fluoropyridin-3-yl)cyclopropyl]ethanone]"
97%,30.9 nM,,"CNc1nc(C)c(C)c2c1CN(C(=O)CC1Cc3ccc(F)cc3C1)C2 (single isomer, unassigned) [Example 57, 1-[6,7-dimethyl-4-(methylamino)-1,3-dihydro-2H-pyrrolo[3,4-c]pyridin-2-yl]-2-(5-fluoro-2,3-dihydro-1H-inden-2-yl)ethanone]"
91.7%,23.6 nM,,"Cc1nc(C(F)F)c2c(c1C)CN(C(=O)CC1CN(c3cccnc3)C1)C2 [Example 18, 1-[4-(difluoromethyl)-6,7-dimethyl-1,3-dihydro-2H-pyrrolo[3,4-c]pyridin-2-yl]-2-[1-(pyridin-3-yl)azetidin-3-yl]ethanone]"
,754 nM,140^c %,"CNc1nc(C)c(C)c2c1CN(C(=O)CC1CN(c3ccnc(OC(F)F)c3)C1)C2C (single isomer, unassigned) [Example 49, 2-{1-[2-(difluoromethoxy)pyridin-4-yl]azetidin-3-yl}-1-[1,6,7-trimethyl-4-(methylamino)-1,3-dihydro-2H-pyrrolo[3,4-c]pyridin-2-yl]ethanone]"
90.8%,2140 nM,,"Cc1c2c(c(=O)n(C)c1C)CN(C(=O)C[C@@H]1C[C@H]1c1cccnc1)C2 (single isomer, unassigned) [Example 26, 5,6,7-trimethyl-2-{[trans-2-(pyridin-3-yl)cyclopropyl]acetyl}-1,2,3,5-tetrahydro-4H-pyrrolo[3,4-c]pyridin-4-one]"
,99.4 nM,111%,"Cc1nc(N)c2c(c1C)CN(C(=O)C[C@@H]1C[C@H]1c1ccc(F)nc1)C2 (single isomer, unassigned) [Example 9, 1-(4-Amino-6,7-dimethyl-1,3-dihydro-2H-pyrrolo[3,4-c]pyridin-2-yl)-2-[trans-2-(6-fluoropyridin-3-yl)cyclopropyl]ethanone]"
95.5%,149 nM,,"CNc1nc(C)c(C)c2c1CN(C(=O)[C@@H]1CCOC1)C2 [Example 59, [6,7-dimethyl-4-(methylamino)-1,3-dihydro-2H-pyrrolo[3,4-c]pyridin-2-yl][(3R)-tetrahydrofuran-3-yl]methanone]"
95.8%,1.76 nM,,"CNc1nc(C)c(C)c2c1CN(C(=O)CC1CN(c3cccnc3)C1)C2 [Example 4, 1-[6,7-Dimethyl-4-(methylamino)-1,3-dihydro-2H-pyrrolo[3,4-c]pyridin-2-yl]-2-[1-(pyridin-3-yl)azetidin-3-yl]ethanone]"
102%,13.8 nM,,"CNc1nc(C)c(C)c2c1CN(C(=O)CCc1cn[nH]c1)C2 [Example 38, 1-[6,7-dimethyl-4-(methylamino)-1,3-dihydro-2H-pyrrolo[3,4-c]pyridin-2-yl]-3-(1H-pyrazol-4-yl)propan-1-one]"
,9.88 nM,104^c %,"CNc1nc(C)c(C)c2c1CN(C(=O)CC1CN(c3ccnc(OC(F)F)c3)C1)C2C (single isomer, unassigned) [Example 50, 2-{1-[2-(difluoromethoxy)pyridin-4-yl]azetidin-3-yl}-1-[1,6,7-trimethyl-4-(methylamino)-1,3-dihydro-2H-pyrrolo[3,4-c]pyridin-2-yl]ethanone]"
109%,6.45 nM,,"Cc1nc(N)c2c(c1C)CN(C(=O)C[C@@H]1C[C@H]1c1ccc(F)nc1)C2 (relative stereo) [Example 7, 1-(4-Amino-6,7-dimethyl-1,3-dihydro-2H-pyrrolo[3,4-c]pyridin-2-yl)-2-[trans-2-(6-fluoropyridin-3-yl)cyclopropyl]ethanone]"
92.3%,1.23 nM,,"CNc1nc(C)c(C)c2c1CN(C(=O)CC1CN(c3cncnc3)C1)C2 [Example 19, 1-[6,7-dimethyl-4-(methylamino)-1,3-dihydro-2H-pyrrolo[3,4-c]pyridin-2-yl]-2-[1-(pyrimidin-5-yl)azetidin-3-yl]ethanone]"
96.1%,4.33 nM,,"CNc1nc(C)c(C)c2c1CN(C(=O)CC1CN(c3ncns3)C1)C2 [Example 2, 1-[6,7-Dimethyl-4-(methylamino)-1,3-dihydro-2H-pyrrolo[3,4-c]pyridin-2-yl]-2-[1-(1,2,4-thiadiazol-5-yl)azetidin-3-yl]ethanone]"
,> 10000 nM,,"CNc1nc(C)c(C)c2c1CN(C(=O)C[C@@H]1C[C@H]1c1ccc(C)nc1)C2 (single isomer, unassigned) [Example 46, 1-[6,7-dimethyl-4-(methylamino)-1,3-dihydro-2H-pyrrolo[3,4-c]pyridin-2-yl]-2-[trans-2-(6-methylpyridin-3-yl)cyclopropyl]ethanone]"
92%,50.6 nM,,"CNc1nc(C)c(C)c2c1CN(C(=O)OC1Cc3cccnc3C1)C2 (centres unmarked) [Example 6, 6,7-Dihydro-5H-cyclopenta[b]pyridin-6-yl 6,7-dimethyl-4-(methylamino)-1,3-dihydro-2H-pyrrolo[3,4-c]pyridine-2-carboxylate]"
94.8%,< 1.7 nM,,"CNc1nc(C)c(C)c2c1CN(C(=O)C[C@H]1C[C@@H]1c1cncnc1)C2 (racemic) [Example 28, 1-[6,7-dimethyl-4-(methylamino)-1,3-dihydro-2H-pyrrolo[3,4-c]pyridin-2-yl]-2-[trans-2-(pyrimidin-5-yl)cyclopropyl]ethanone]"
114%,197 nM,,"CNc1nc(C)c(C)c2c1CN(C(=O)C[C@@H]1C[C@H]1c1cccnc1)C2 (single isomer, unassigned) [Example 10, 1-[6,7-Dimethyl-4-(methylamino)-1,3-dihydro-2H-pyrrolo[3,4-c]pyridin-2-yl]-2-[trans-2-(pyridin-3-yl)cyclopropyl]ethanone]"
